Results on 46 compounds are retold here after US11040954B1, “CXCR3 receptor agonists” (RECEPTOS LLC, priority 2016, dated 2021).

Structures are written as SMILES. A value given as a limit tells only on which side of the number the result lay.

The target in this experiment is T1, CXCR3 (Homo sapiens, UniProt P49682).
T1 construct: host or cells: CHO-K1 (cAMP Hunter CHOK1 CXCR3 Gi cell line)
T1 sequence (P49682 1-368): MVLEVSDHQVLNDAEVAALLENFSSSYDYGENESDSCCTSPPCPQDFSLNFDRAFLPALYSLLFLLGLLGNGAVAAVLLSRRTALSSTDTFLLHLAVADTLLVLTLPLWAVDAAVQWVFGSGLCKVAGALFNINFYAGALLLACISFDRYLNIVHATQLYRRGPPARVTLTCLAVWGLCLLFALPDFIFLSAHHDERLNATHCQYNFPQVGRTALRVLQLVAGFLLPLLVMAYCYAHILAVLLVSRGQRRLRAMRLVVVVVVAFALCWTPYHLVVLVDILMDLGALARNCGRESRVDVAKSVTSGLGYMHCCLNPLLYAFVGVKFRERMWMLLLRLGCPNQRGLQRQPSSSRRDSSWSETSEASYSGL
The experiment in a line: CXCR3 cAMP agonist assay (cAMP Hunter CHOK1 CXCR3 Gi cell line, forskolin-stimulated, HitHunter cAMP detection). The following applies: cAMP Hunter CHOK1 CXCR3 Gi cells, 20 μM forskolin, 30 minutes; read-out: Activity (CXCR3 cAMP agonist assay compound EC50). The experiment is classed as cell-based. The method, boiled down: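 CHOK1 cells expressing human CXCR3 with Gi coupling, 50,000/well in suspension in HBSS/10 mM HEPES/0.1% BSA pH 7.4, were co-treated with 20 μM forskolin and compound (12-point, 0-10 μM, 1% DMSO) for 30 min. cAMP was read by enzyme-complementation luminescence; CXCL11 dose response set maximum efficacy.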
For `CO[C@H]1CCCN(C(=O)CCC(=O)N2Cc3ccccc3C[C@H]2C(=O)N[C@@H](CCN)C(=O)Nc2ccc(Cl)c(Cl)c2F)C1` [Compound 15-26], the EC50 is < 50 nM.
With `COc1ccc(C(=O)CCC(=O)N2Cc3ccccc3C[C@H]2C(=O)N[C@@H](CCCCN)C(=O)Nc2ccc(Cl)c(C)c2)cc1F` [Compound 7-9] the figure was > 500 nM.
The same measure for `Cc1cc(NC(=O)[C@H](CCN)NC(=O)[C@@H]2Cc3ccccc3CN2C(=O)CCC(=O)N2CC(C)(c3ccccc3)C2)ccc1Cl` [Compound 12-11]: < 50 nM.
With `NCCCC[C@H](NC(=O)[C@@H]1Cc2ccccc2CN1C(=O)CCC(=O)c1ccccc1)C(=O)Nc1cccc(C(F)(F)F)c1` [Compound 1-13] the figure was 50 to 250 nM.
For `Cc1cc(NC(=O)[C@H](CCN)NC(=O)[C@@H]2Cc3ccccc3CN2C(=O)CCC(=O)N2CCN(C)CC2(C)C)ccc1Cl` [Compound 12-103], the EC50 was < 50 nM.
With `Cc1cc(NC(=O)[C@H](CCN)NC(=O)[C@@H]2Cc3ccccc3CN2C(=O)CCC(=O)N2CCN(C)C2)ccc1Cl` [Compound 12-145] the figure was < 50 nM; with `NCC[C@H](NC(=O)[C@@H]1Cc2ccccc2CN1C(=O)CCC(=O)N1CCCC[C@@H]1CO)C(=O)Nc1ccc(Cl)c(Cl)c1F` [Compound 15-18], < 50 nM.
In the case of `Cc1cc(NC(=O)[C@H](CCNC2CC2)NC(=O)[C@@H]2Cc3ccccc3CN2C(=O)CCC(=O)c2ccccc2)ccc1Cl` [Compound 16-1, (S)—N—((S)-1-((4-chloro-3-methylphenyl)amino)-4-(cyclopropylamino)-1-oxobutan-2-yl)-2-(4-oxo-4-phenylbutanoyl)-1,2,3,4-tetrahydroisoquinoline-3-carboxamide], the 50% effective concentration (EC50) was < 50 nM.
The same measure for `CC1(C)CCCN(C(=O)CCC(=O)N2Cc3cc(F)ccc3C[C@H]2C(=O)N[C@@H](CCN)C(=O)Nc2ccc(Cl)c(Cl)c2F)C1` [Compound 15-57]: < 50 nM.
The same measure for `Cc1cc(NC(=O)[C@H](CCN)NC(=O)[C@H]2Cc3ccccc3CN2C(=O)CCC(=O)c2ccccc2)ncc1Cl` [Compound 4-17]: > 500 nM.
With `Cc1ccc(NC(=O)[C@H](CCN)NC(=O)[C@@H]2Cc3ccccc3CN2C(=O)CCC(=O)c2ccccc2)c(F)c1` [Compound 2-31] the figure was 50 to 250 nM.
With `CC[C@H]1CCN(C(=O)CCC(=O)N2Cc3ccccc3C[C@H]2C(=O)N[C@@H](CCN)C(=O)Nc2ccc(Cl)c(C)c2)C1` [Compound 12-153], the EC50 was < 50 nM.
The same measure for `Cc1cc(NC(=O)[C@H](CCN)NC(=O)[C@@H]2Cc3ccccc3CN2C(=O)CCC(=O)N2CCN(c3nccs3)CC2)ccc1Cl` [Compound 12-108]: 50 to 250 nM.
In the case of `NCC[C@H](NC(=O)[C@@H]1Cc2ccccc2CN1C(=O)CCC(=O)c1ccccc1)C(=O)Nc1ccc2c(c1)OCO2` [Compound 2-63], the EC50 is 50 to 250 nM.
The same measure for `O=C(CCC(=O)N1Cc2ccccc2C[C@H]1C(=O)N[C@@H](CCN1CCC(F)(F)C1)C(=O)Nc1ccc(Cl)c(Cl)c1F)c1ccccc1` [Compound 23-4]: 50 to 250 nM; for `Cc1cc(NC(=O)[C@H](CCN)NC(=O)[C@@H]2Cc3ccccc3CN2C(=O)CCC(=O)N2CCC2)ccc1Cl` [Compound 12-30]: 50 to 250 nM.
With `Cc1cc(NC(=O)[C@H](CCN)NC(=O)[C@@H]2Cc3ccccc3CN2C(=O)CCC(=O)N2CCCC23CCC3)cc(C)c1Cl` [Compound 10-10], the EC50 is < 50 nM.
With `COc1cc(C)c(C)cc1NC(=O)[C@H](CCN)NC(=O)[C@@H]1Cc2ccccc2CN1C(=O)CCC(=O)c1ccccc1` [Compound 2-79] the figure was < 50 nM; with `Cc1cc(NC(=O)[C@H](CCN)NC(=O)[C@@H]2Cc3ccccc3CN2C(=O)CCC(=O)N2CCOCC2(C)C)ccc1Cl` [Compound 12-23], < 50 nM; with `CC1(C)Cc2ccc(NC(=O)[C@H](CCN)NC(=O)[C@@H]3Cc4ccccc4CN3C(=O)CCC(=O)c3ccccc3)cc2C1` [Compound 2-75], 50 to 250 nM.
With `C[C@@H]1CN(C(=O)CCC(=O)N2Cc3ccccc3C[C@H]2C(=O)N[C@@H](CCN)C(=O)Nc2ccc(Cl)c(Cl)c2F)CCN1C` [Compound 15-64] the figure was 50 to 250 nM.
With `Cc1cc(Cl)ccc1NC(=O)[C@H](CCN)NC(=O)[C@@H]1Cc2ccccc2CN1C(=O)CCC(=O)c1ccccc1` [Compound 2-10] the figure was 250 to 500 nM; with `CC(C)N(C(=O)CCC(=O)N1Cc2ccccc2C[C@H]1C(=O)N[C@@H](CCN)C(=O)Nc1ccc(Cl)c(Cl)c1F)C(C)C` [Compound 15-39], 250 to 500 nM.
As to `Cc1cc(NC(=O)[C@H](CCN)NC(=O)[C@@H]2Cc3ccccc3CN2C(=O)CCC(=O)N2CCC(c3ccccc3)C2)ccc1Cl` (stereo partly shown) [Compound 12-54], the EC50 was in the range of 50 to 250 nM.
The same measure for `CC(C)C1CCN(C(=O)CCC(=O)N2Cc3ccccc3C[C@H]2C(=O)N[C@@H](CCN)C(=O)Nc2ccc(Cl)c(Cl)c2F)C1` (stereo partly shown) [Compound 15-9]: < 50 nM; for `COc1nccc(C[C@H](NC(=O)[C@@H]2Cc3ccccc3CN2C(=O)CCC(=O)c2ccccc2)C(=O)Nc2ccc(Cl)c(C)c2)n1` [Compound 3-11]: 250 to 500 nM; for `NCC[C@H](NC(=O)[C@@H]1Cc2ccccc2CN1C(=O)CCC(=O)c1ccccc1)C(=O)Nc1cc(Cl)c(Cl)cc1F` [Compound 2-20]: 50 to 250 nM.
On to `NCC[C@H](NC(=O)[C@@H]1Cc2ccccc2CN1C(=O)CCC(=O)N1CCC2(CC2)C1)C(=O)Nc1ccc(Cl)c(Cl)c1F` [Compound 15-46], for which the EC50 was < 50 nM.
The same measure for `CN(C)[C@H]1CCN(C(=O)CCC(=O)N2Cc3ccccc3C[C@H]2C(=O)N[C@@H](CCN)C(=O)Nc2ccc(Cl)c(Cl)c2F)C1` [Compound 15-30]: 50 to 250 nM; for `Cc1cc(NC(=O)[C@@H](CCN)NC(=O)[C@@H]2Cc3ccccc3CN2C(=O)CCC(=O)N2CCCOCC2)ccc1Cl` [Compound 12-21]: < 50 nM; for `CC1CN(C(=O)CCC(=O)N2Cc3ccccc3C[C@H]2C(=O)N[C@@H](CCN)C(=O)Nc2ccc(Cl)c(Cl)c2F)CCN1C` (stereo partly shown) [Compound 15-5]: < 50 nM.
With `Cc1cc(NC(=O)[C@H](CCN)NC(=O)[C@@H]2Cc3ccccc3CN2C(=O)CCC(=O)N2CCCC2)ccc1Cl` [Compound 12-5] the figure was < 50 nM.
Consider `O=C(CCC(=O)N1Cc2ccccc2C[C@H]1C(=O)N[C@@H](CCN1CC(F)(F)C1)C(=O)Nc1ccc2c(c1)CCC2)c1ccccc1` [Compound 23-6], for which the EC50 lay within 50 to 250 nM.
With `CN(C)CCCC[C@H](NC(=O)[C@@H]1Cc2ccccc2CN1C(=O)CCC(=O)c1ccccc1)C(=O)Nc1ccc(Cl)c(Cl)c1` [Compound 1-31] the figure was 250 to 500 nM; with `NCCCC[C@H](NC(=O)[C@@H]1Cc2ccccc2CN1C(=O)CCC(=O)c1ccccc1)C(=O)Nc1ccc(Cl)c(C(F)(F)F)c1` [Compound 1-18], < 50 nM.
Turning to `CN1Cc2ccc(NC(=O)[C@H](CCN)NC(=O)[C@@H]3Cc4ccccc4CN3C(=O)CCC(=O)c3ccccc3)cc2C1` [Compound 2-82], the EC50 was < 50 nM.
The same measure for `Cc1cc(NC(=O)C(CCC2(N(C)C)COC2)NC(=O)[C@@H]2Cc3ccccc3CN2C(=O)CCC(=O)c2ccccc2)ccc1Cl` (stereo partly drawn) [Compound 21-1, (3S)—N-(1-((4-chloro-3-methylphenyl)amino)-4-(3-(dimethylamino)oxetan-3-yl)-1-oxobutan-2-yl)-2-(4-oxo-4-phenylbutanoyl)-1,2,3,4-tetrahydroisoquinoline-3-carboxamide]: 50 to 250 nM; for `Cc1ccc(NC(=O)[C@H](CCCCN)NC(=O)[C@@H]2Cc3ccccc3CN2C(=O)CCC(=O)c2ccccc2)cc1C(F)(F)F` [Compound 1-30]: < 50 nM.
The same measure for `NCC[C@H](NC(=O)[C@@H]1Cc2ccccc2CN1C(=O)CCC(=O)c1ccccc1)C(=O)Nc1ccc(Cl)cc1OC(F)(F)F` [Compound 14-23]: 50 to 250 nM.
The same measure for `COc1cc(F)c(C)cc1NC(=O)[C@H](CCN)NC(=O)[C@@H]1Cc2ccccc2CN1C(=O)CCC(=O)c1ccccc1` [Compound 2-60]: 50 to 250 nM; for `Cc1c(NC(=O)C2(NC(=O)[C@@H]3Cc4ccccc4CN3C(=O)CCC(=O)c3ccccc3)CCNCC2)ccc(Cl)c1Cl` [Compound 11-2]: 250 to 500 nM; for `Cc1cc(NC(=O)[C@H](CCN)NC(=O)[C@@H]2Cc3ccccc3CN2C(=O)CCC(=O)N2CCCC(O)C2)ccc1Cl` (stereo partly shown) [Compound 12-62]: < 50 nM.
As for `Cc1cc(NC(=O)[C@H](CCN)NC(=O)[C@@H]2Cc3ccccc3CN2C(=O)CCC(=O)N(C)Cc2ccccc2)ccc1Cl` [Compound 12-16], the EC50 was > 500 nM.
On to `CC(=O)N1CCN(CC[C@H](NC(=O)[C@@H]2Cc3ccccc3CN2C(=O)CCC(=O)c2ccccc2)C(=O)Nc2ccc(Cl)c(C)c2)CC1` [Compound 19-1, (S)—N—((S)-4-(4-acetylpiperazin-1-yl)-1-((4-chloro-3-methylphenyl)amino)-1-oxobutan-2-yl)-2-(4-oxo-4-phenylbutanoyl)-1,2,3,4-tetrahydroisoquinoline-3-carboxamide], for which the EC50 lay within 250 to 500 nM.
Take `Cc1cccc(NC(=O)[C@H](CCN)NC(=O)[C@@H]2Cc3ccccc3CN2C(=O)CCC(=O)c2ccccc2)c1Cl` [Compound 14-6]: the EC50 was < 50 nM.
The same measure for `Cc1cc(NC(=O)[C@@H](Cc2cc3ccccc3[nH]2)NC(=O)[C@@H]2Cc3ccccc3CN2C(=O)CCC(=O)c2ccccc2)ccc1Cl` [Compound 4-5]: > 500 nM.
